From patent publication US12077503B2, “Substituted cyclic amides and their use as herbicides” (FMC CORPORATION, priority 2015, dated 2024)

What was measured:
Type in all cases: in vivo
[1] = system: barnyardgrass (Echinochloa crus-galli); assay: Test G Pre-Emergence Protocol; conditions: Echinochloa crus-galli, pre-emergence, 312 h, evaluated after 13 days; for pest or weed control at 15.625 g/ha: 15.625 g ai/ha, read-out: Barnyard grass damage rating (100=total damage to plant; 0=no damage to plant); for pest or weed control at 62.5 g/ha: 62.5 g ai/ha, 100=total damage to plant, 0=no damage to plant, read-out: plant damage rating, Barnyardgrass; for pest or weed control at 250 g/ha: 250 g ai/ha, read-out: Barnyardgrass damage rating (100=total damage to plant; 0=no damage to plant)
Procedure, shortened: (§1)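 Visual injury (0–100) at day 13 after a single pre-emergence spray. Rates: 15.625, 62.5, 250 g/ha in acetone–water 50:50 with 0.5% Tween 20. Growth conditions: 24/16° C, 14 h light, 65% humidity.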

corn (Zea mays) [2] = assay: Test G Pre-Emergence Protocol; conditions: Zea mays, pre-emergence, 312 h, evaluated after 13 days; for plant injury at 15.625 g/ha: 15.625 g ai/ha; for plant injury at 15.625 g/ha / plant injury at 250 g/ha: read-out: Corn damage rating (100=total damage to plant; 0=no damage to plant); for plant injury at 62.5 g/ha: 62.5 g ai/ha, 100=total damage to plant, 0=no damage to plant, read-out: plant damage rating, Corn; for plant injury at 250 g/ha: 250 g ai/ha
Procedure, shortened: as §1

[3] = system: giant foxtail (Setaria faberi); assay: Test G Pre-Emergence Protocol; conditions: Setaria faberi, pre-emergence, 312 h, evaluated after 13 days; for pest or weed control at 15.625 g/ha: 15.625 g ai/ha; for pest or weed control at 15.625 g/ha / pest or weed control at 250 g/ha: read-out: Foxtail, Giant damage rating (100=total damage to plant; 0=no damage to plant); for pest or weed control at 62.5 g/ha: 62.5 g ai/ha, 100=total damage to plant, 0=no damage to plant, read-out: plant damage rating, Foxtail, Giant; for pest or weed control at 250 g/ha: 250 g ai/ha
Procedure, shortened: as §1

[4] = system: ivy-leaved morning glory (Ipomoea hederacea); assay: Test G Pre-Emergence Protocol; conditions: Ipomoea, pre-emergence, 312 h, evaluated after 13 days; for pest or weed control at 15.625 g/ha: 15.625 g ai/ha, read-out: Morning-glory, Ivy-leaved damage rating (100=total damage to plant; 0=no damage to plant); for pest or weed control at 62.5 g/ha: 62.5 g ai/ha, 100=total damage to plant, 0=no damage to plant, read-out: plant damage rating, Morningglory, Ivy-leaved; for pest or weed control at 250 g/ha: 250 g ai/ha, read-out: Morningglory, Ivy-leaved damage rating (100=total damage to plant; 0=no damage to plant)
Procedure, shortened: as §1

[5] = system: redroot pigweed (Amaranthus retroflexus); assay: Test G Pre-Emergence Protocol; conditions: Amaranthus retroflexus, pre-emergence, 312 h, evaluated after 13 days; for pest or weed control at 15.625 g/ha: 15.625 g ai/ha; for pest or weed control at 15.625 g/ha / pest or weed control at 250 g/ha: read-out: Pigweed, Redroot damage rating (100=total damage to plant; 0=no damage to plant); for pest or weed control at 62.5 g/ha: 62.5 g ai/ha, 100=total damage to plant, 0=no damage to plant, read-out: plant damage rating, Pigweed, Redroot; for pest or weed control at 250 g/ha: 250 g ai/ha
Procedure, shortened: as §1

[6] = system: velvetleaf (Abutilon theophrasti); assay: Test G Pre-Emergence Protocol; conditions: Abutilon theophrasti, pre-emergence, 312 h, evaluated after 13 days; for pest or weed control at 15.625 g/ha: 15.625 g ai/ha; for pest or weed control at 15.625 g/ha / pest or weed control at 250 g/ha: read-out: Velvetleaf damage rating (100=total damage to plant; 0=no damage to plant); for pest or weed control at 62.5 g/ha: 62.5 g ai/ha, 100=total damage to plant, 0=no damage to plant, read-out: plant damage rating, Velvetleaf; for pest or weed control at 250 g/ha: 250 g ai/ha
Procedure, shortened: as §1

[7] = system: barnyardgrass (Echinochloa crus-galli); assay: Test G Post-Emergence Protocol; conditions: Echinochloa crus-galli, post-emergence, 312 h; for pest or weed control at 15.625 g/ha: 15.625 g ai/ha, evaluated after 13 days (100=total damage to plant; 0=no damage to plant), read-out: Barnyardgrass damage rating; for pest or weed control at 62.5 g/ha: 62.5 g ai/ha, read-out: Barnyardgrass damage rating (100=total damage to plant; 0=no damage to plant); for pest or weed control at 62.5 g/ha / pest or weed control at 250 g/ha: evaluated after 13 days; for pest or weed control at 250 g/ha: 250 g ai/ha, read-out: damage to plant, Barnyardgrass (100=total damage to plant; 0=no damage to plant)
Procedure, shortened: (§2)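 Scores run 0 (no damage) to 100 (total damage) and were taken 13 days after spraying. Plants had been raised in pots for 8 days under glasshouse control (24/16 °C, 14 h photoperiod, 65% humidity) and then treated at 15.625, 62.5 or 250 g/ha.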

corn (Zea mays) [8] = assay: Test G Post-Emergence Protocol; conditions: Zea mays, post-emergence, 312 h; for plant injury at 15.625 g/ha: 15.625 g ai/ha, evaluated after 13 days (100=total damage to plant; 0=no damage to plant), read-out: Corn damage rating; for plant injury at 62.5 g/ha: 62.5 g ai/ha, read-out: Corn damage rating (100=total damage to plant; 0=no damage to plant); for plant injury at 62.5 g/ha / plant injury at 250 g/ha: evaluated after 13 days; for plant injury at 250 g/ha: 250 g ai/ha, read-out: damage to plant, Corn (100=total damage to plant; 0=no damage to plant)
Procedure, shortened: as §2

[9] = system: giant foxtail (Setaria faberi); assay: Test G Post-Emergence Protocol; conditions: Setaria faberi, post-emergence, 312 h; for pest or weed control at 15.625 g/ha: 15.625 g ai/ha, evaluated after 13 days (100=total damage to plant; 0=no damage to plant), read-out: Foxtail, Giant damage rating; for pest or weed control at 62.5 g/ha: 62.5 g ai/ha, read-out: Foxtail, Giant damage rating (100=total damage to plant; 0=no damage to plant); for pest or weed control at 62.5 g/ha / pest or weed control at 250 g/ha: evaluated after 13 days; for pest or weed control at 250 g/ha: 250 g ai/ha, read-out: damage to plant, Foxtail, Giant (100=total damage to plant; 0=no damage to plant)
Procedure, shortened: as §2

[10] = system: ivy-leaved morning glory (Ipomoea hederacea); assay: Test G Post-Emergence Protocol; conditions: Ipomoea, post-emergence, 312 h; for pest or weed control at 15.625 g/ha: 15.625 g ai/ha, evaluated after 13 days (100=total damage to plant; 0=no damage to plant), read-out: Morningglory, Ivy-leaved damage rating; for pest or weed control at 62.5 g/ha: 62.5 g ai/ha, read-out: Morningglory, Ivy-leaved damage rating (100=total damage to plant; 0=no damage to plant); for pest or weed control at 62.5 g/ha / pest or weed control at 250 g/ha: evaluated after 13 days; for pest or weed control at 250 g/ha: 250 g ai/ha, read-out: damage to plant, Morningglory, Ivy-leaved (100=total damage to plant; 0=no damage to plant)
Procedure, shortened: as §2

[11] = system: redroot pigweed (Amaranthus retroflexus); assay: Test G Post-Emergence Protocol; conditions: Amaranthus retroflexus, post-emergence, 312 h; for pest or weed control at 15.625 g/ha: 15.625 g ai/ha, evaluated after 13 days (100=total damage to plant; 0=no damage to plant), read-out: Pigweed, Redroot damage rating; for pest or weed control at 62.5 g/ha: 62.5 g ai/ha, read-out: Pigweed, Redroot damage rating (100=total damage to plant; 0=no damage to plant); for pest or weed control at 62.5 g/ha / pest or weed control at 250 g/ha: evaluated after 13 days; for pest or weed control at 250 g/ha: 250 g ai/ha, read-out: damage to plant, Pigweed, Redroot (100=total damage to plant; 0=no damage to plant)
Procedure, shortened: as §2

[12] = system: velvetleaf (Abutilon theophrasti); assay: Test G Post-Emergence Protocol; conditions: Abutilon theophrasti, post-emergence, 312 h; for pest or weed control at 15.625 g/ha: 15.625 g ai/ha, evaluated after 13 days (100=total damage to plant; 0=no damage to plant), read-out: Velvetleaf damage rating; for pest or weed control at 62.5 g/ha: 62.5 g ai/ha, read-out: Velvetleaf damage rating (100=total damage to plant; 0=no damage to plant); for pest or weed control at 62.5 g/ha / pest or weed control at 250 g/ha: evaluated after 13 days; for pest or weed control at 250 g/ha: 250 g ai/ha, read-out: damage to plant, Velvetleaf (100=total damage to plant; 0=no damage to plant)
Procedure, shortened: as §2

Cc1c(NC(=O)[C@@H]2C(=O)N(C)C[C@H]2c2ccc(C(F)(F)F)cc2)ccnc1Cl (racemic) [Compound 1631] gave a pest or weed control at 15.625 g/ha [1] of 0%, a pest or weed control at 62.5 g/ha [1] of 0% and a pest or weed control at 250 g/ha [1] of 0%. The plant injury at 15.625 g/ha (corn (Zea mays) [2]) was 0%, the plant injury at 62.5 g/ha (corn (Zea mays) [2]) was 10% and the plant injury at 250 g/ha (corn (Zea mays) [2]) was 0%. The pest or weed control at 15.625 g/ha [3] was 0%, the pest or weed control at 62.5 g/ha [3] was 10% and the pest or weed control at 250 g/ha [3] was 70%. The pest or weed control at 15.625 g/ha [4] was 0%, the pest or weed control at 62.5 g/ha [4] was 20% and the pest or weed control at 250 g/ha [4] was 30%. For the same compound, the pest or weed control at 15.625 g/ha [5] was 0%, the pest or weed control at 62.5 g/ha [5] was 20% and the pest or weed control at 250 g/ha [5] was 10%. For the same compound, the pest or weed control at 15.625 g/ha [6] was 0%, the pest or weed control at 62.5 g/ha [6] was 0% and the pest or weed control at 250 g/ha [6] was 0%. For the same compound, the pest or weed control at 15.625 g/ha [7] was 0%, the pest or weed control at 62.5 g/ha [7] was 10% and the pest or weed control at 250 g/ha [7] was 10%. It also gave a plant injury at 15.625 g/ha (corn (Zea mays) [8]) of 0%, a plant injury at 62.5 g/ha (corn (Zea mays) [8]) of 0% and a plant injury at 250 g/ha (corn (Zea mays) [8]) of 10%. The pest or weed control at 15.625 g/ha [9] was 0%, the pest or weed control at 62.5 g/ha [9] was 60% and the pest or weed control at 250 g/ha [9] was 70%. For the same compound, the pest or weed control at 15.625 g/ha [10] was 0%, the pest or weed control at 62.5 g/ha [10] was 20% and the pest or weed control at 250 g/ha [10] was 20%. It also gave a pest or weed control at 15.625 g/ha [11] of 0%, a pest or weed control at 62.5 g/ha [11] of 20% and a pest or weed control at 250 g/ha [11] of 20%. For the same compound, the pest or weed control at 15.625 g/ha [12] was 0%, the pest or weed control at 62.5 g/ha [12] was 10% and the pest or weed control at 250 g/ha [12] was 0%.

With Cc1ccc(NC(=O)[C@@H]2C(=O)N(C)C[C@H]2c2ccc(C(F)(F)F)cc2)c(F)c1 (racemic) [Compound 1591] the pest or weed control at 15.625 g/ha [1] was 0%, the pest or weed control at 62.5 g/ha [1] was 50% and the pest or weed control at 250 g/ha [1] was 70%. The plant injury at 15.625 g/ha (corn (Zea mays) [2]) was 0%, the plant injury at 62.5 g/ha (corn (Zea mays) [2]) was 10% and the plant injury at 250 g/ha (corn (Zea mays) [2]) was 0%. It also gave a pest or weed control at 15.625 g/ha [3] of 0%, a pest or weed control at 62.5 g/ha [3] of 70% and a pest or weed control at 250 g/ha [3] of 80%. The pest or weed control at 15.625 g/ha [4] was 0%, the pest or weed control at 62.5 g/ha [4] was 0% and the pest or weed control at 250 g/ha [4] was 0%. It also gave a pest or weed control at 15.625 g/ha [5] of 0%, a pest or weed control at 62.5 g/ha [5] of 0% and a pest or weed control at 250 g/ha [5] of 0%. For the same compound, the pest or weed control at 15.625 g/ha [6] was 0%, the pest or weed control at 62.5 g/ha [6] was 0% and the pest or weed control at 250 g/ha [6] was 10%. It also gave a pest or weed control at 15.625 g/ha [7] of 0%, a pest or weed control at 62.5 g/ha [7] of 30% and a pest or weed control at 250 g/ha [7] of 50%. The plant injury at 15.625 g/ha (corn (Zea mays) [8]) was 0%, the plant injury at 62.5 g/ha (corn (Zea mays) [8]) was 0% and the plant injury at 250 g/ha (corn (Zea mays) [8]) was 10%. For the same compound, the pest or weed control at 15.625 g/ha [9] was 0%, the pest or weed control at 62.5 g/ha [9] was 70% and the pest or weed control at 250 g/ha [9] was 80%. The pest or weed control at 15.625 g/ha [10] was 0%, the pest or weed control at 62.5 g/ha [10] was 10% and the pest or weed control at 250 g/ha [10] was 10%. It also gave a pest or weed control at 15.625 g/ha [11] of 0%, a pest or weed control at 62.5 g/ha [11] of 10% and a pest or weed control at 250 g/ha [11] of 10%. For the same compound, the pest or weed control at 15.625 g/ha [12] was 0%, the pest or weed control at 62.5 g/ha [12] was 0% and the pest or weed control at 250 g/ha [12] was 10%.
